How the values were obtained:
[1] = Moist heat resistance test of laminate (60° C., 90% RH, 160 hours); assay type: physicochemical; conditions: for Haze after moist heating: after 160 hours at 60° C.; for Haze after moist heating / Moist heat resistance: 90% RH; for Moist heat resistance: change in transmittance at 380 nm after 160 hours at 60° C.
Procedure: The moist heat test was carried out with a constant temperature and humidity device (IG420, manufactured by Yamato Scientific Co., Ltd.) under the conditions of a temperature of 60° C. and a humidity of 90% RH. The transmittance at 380 nm after the lapse of 160 hours was measured by the above method. The width of change in transmittance at a wavelength of 380 nm before and after the moist heat resistance test was calculated, and the moist heat resistance was evaluated as “particularly good” in a case where the width of change was less than 5%, the moist heat resistance was evaluated as “good” in a case where the width of change was 5% or more and less than 10%, and the moist heat resistance was evaluated as “bad” in a case where the width of change was 10% or more.
The haze after the moist heat resistance test was measured by the same method as in (2. Initial haze) described above.

[2] = Light fastness of laminate, metal halide lamp irradiation; assay type: physicochemical; conditions: change in transmittance at 380 nm after 60 hours metal halide lamp, 90 mW/cm^2, 63° C., 50% RH
Procedure: First, the transmittance of the obtained laminate of the glass plate and the ultraviolet absorbing film at a wavelength of 380 nm was measured using a spectrophotometer (model number: UV 3150) manufactured by Shimadzu Corporation.
Next, using a super-accelerated weather fastness tester [product name: EYE SUPER UV Tester, IWASAKI ELECTRIC Co., Ltd.], the obtained laminate of the glass plate and the ultraviolet absorbing film was irradiated with light (about 290 nm […]) of a metal halide lamp for 60 hours under the conditions of an illuminance of 90 mW/cm^2 ([…]), a temperature of 63° C., and a relative humidity of 50%.
After light irradiation, the transmittance of the obtained laminate of the glass plate and the ultraviolet absorbing film at a wavelength of 380 nm was measured in the same manner as described above using a spectrophotometer (model number: UV 3150) manufactured by Shimadzu Corporation.
The width of change in transmittance at a wavelength of 380 nm before and after the light irradiation was calculated, and the light fastness was evaluated as “particularly good” in a case where the width of change was less than 5%, the light fastness was evaluated as “good” in a case where the width of change was 5% or more and less than 10%, and the light fastness was evaluated as “bad” in a case where the width of change was 10% or more.

[3] = Solubility in distilled water at 25° C.; conditions: 24 hours standing
Procedure: The solubility of the specific ultraviolet absorbing agent in water in the present disclosure can be measured by the following method from the amount of the specific ultraviolet absorbing agent dissolved in 10 g of distilled water at 25° C.
After mixing 10 g of distilled water with 1 g of the specific ultraviolet absorbing agent, the resultant mixture is irradiated with ultrasonic waves at a liquid temperature of 25° C. for 15 minutes and then allowed to stand for 24 hours while the liquid temperature is maintained at 25° C. For ultrasonic irradiation, a desktop ultrasonic cleaner 1510, manufactured by Branson Ultrasonics, Emerson Japan, Ltd. is used.
After being allowed to stand for 24 hours, filtration is carried out through a membrane filter (0.1 μm mesh, manufactured by [sequence] Co., Ltd.). The unfiltered specific ultraviolet absorbing agent is collected, dried, and then weighed. The amount of the unfiltered specific ultraviolet absorbing agent is subtracted from 1 g of the specific ultraviolet absorbing agent to obtain an amount of the specific ultraviolet absorbing agent dissolved in water, and the solubility of the specific ultraviolet absorbing agent in water is calculated from that the obtained amount value.

[4] = Molar absorption coefficient in pure water; assay type: physicochemical; conditions: 1.0 mg in 100 mL pure water, 1 cm cell, at maximum absorption wavelength; in L/(mol·cm) (unit assumed)
Procedure: After dissolving 1.0 mg of a sample in 100 mL of pure water, the absorbance of the aqueous solution was measured in a 1 cm cell using a spectrophotometer (model number: UV 3150) manufactured by Shimadzu Corporation. From the measurement results, the molar absorption coefficient was calculated from the value of the absorbance at the maximum absorption wavelength using the Lambert-Beer law.

[5] = Maximum absorption wavelength by spectrophotometer; assay type: physicochemical; conditions: H2O
Procedure: The maximum absorption wavelength of the ultraviolet absorbing agent can be measured, for example, using a spectrophotometer. Examples of the device include a spectrophotometer UV3600 and an ultraviolet-visible-near infrared spectrophotometer UV 3150, manufactured by Shimadzu Corporation. In the present disclosure, the maximum absorption wavelength of the ultraviolet absorbing agent is measured using a spectrophotometer UV3600.
The measurement is carried out at room temperature (25° C.), and the absorbance is measured using a spectrophotometer to obtain an absorption spectrum while air is referenced as a control as the measurement condition.
In a case where an absorbance at a wavelength in a predetermined wavelength range is measured, the maximum absorption wavelength, the transmittance, and the like can be calculated.

[6] = 5.0 parts agent/45.0 parts PVA film
[7] = 2.0 parts agent/98.0 parts PVA film

Compound	Solubility (25° C.) [3] [% by mass]	Haze after moist heating [1, 6] [%]	Moist heat resistance [1, 6]	Light fastness [2, 6]	other results
O=C(c1ccc(O)cc1O)c1ccc(O)cc1O [Compound H-1, reference compound]		6.1	Bad (the width of change was 10% or more)	Bad (the width of change was 10% or more)	
O=S(=O)([O-])CCNc1nc(NCCS(=O)(=O)[O-])nc(Nc2ccc(C=Cc3ccc(Nc4nc(NCCS(=O)(=O)[O-])nc(NCCS(=O)(=O)[O-])n4)cc3S(=O)(=O)[O-])c(S(=O)(=O)[O-])c2)n1.[Na+].[Na+].[Na+].[Na+].[Na+].[Na+] [Compound H-3, reference compound]		9.5	Bad (the width of change was 10% or more)	Bad (the width of change was 10% or more)	
CCCCN1C(=O)C(=C2Sc3c(OCCCCS(=O)(=O)[O-])c4c(c(OCCCCS(=O)(=O)[O-])c3S2)SC(=C2C(=O)N(CCCC)N(CCCC)C2=O)S4)C(=O)N1CCCC.[Na+].[Na+] [Compound H-4, reference compound]		18	Bad (the width of change was 10% or more)	Good (the width of change was 5% or more and less than 10%)	haze after the moist heat resistance test ([1]; in words, summary of Table 1): significantly increased
CCCCC(CC)COc1ccc(OCC(CC)CCCC)c2c1SC(=C1C(=O)N(CCCC)N(CCCC)C1=O)S2 (centres unmarked) [Compound H-5, reference compound]		68	Bad (the width of change was 10% or more)	Bad (the width of change was 10% or more)	
N#CC(C(=O)c1ccccc1)=C1Sc2c(OCCCS(=O)(=O)[O-])ccc(OCCCS(=O)(=O)[O-])c2S1.[Na+].[Na+] [Compound M-2]	2.9				
N#CC(C#N)=C1Sc2c(OCCCCP(=O)(O)O)ccc(OCCCCP(=O)(O)O)c2S1 [Compound M-7]	2.0				
CCCCOc1ccc(OCCCC)c2c1SC(=C(C#N)C(=O)OCCCCS(=O)(=O)[O-])S2.[Na+] [Compound M-9]	2.1				
CCCCN1C(=O)C(=C2Sc3c(OCCCCS(=O)(=O)[O-])ccc(OCCCCS(=O)(=O)[O-])c3S2)C(=O)N1CCCC.[Na+].[Na+] [Compound M-11]		0.26	Particularly good (the width of change was less than 5%)	Particularly good (the width of change was less than 5%)	Haze after moist heating [1, 7]: 0.1%; Moist heat resistance [1, 7]: Particularly good (the width of change was less than 5%); Molar absorption coefficient [4]: 35,900; Maximum absorption wavelength [5]: 387 nm; Light fastness [2, 7]: Particularly good (the width of change was less than 5%)
CCCCN1C(=O)C(=C2Sc3c(OCCCS(=O)(=O)[O-])ccc(OCCCS(=O)(=O)[O-])c3S2)C(=O)N1CCCC.[Na+].[Na+] [Compound M-12]	3.6				
O=C1C(=C2Sc3c(OCCCCS(=O)(=O)[O-])ccc(OCCCCS(=O)(=O)[O-])c3S2)C(=O)N(c2ccccc2)N1c1ccccc1.[Na+].[Na+] [Compound M-13]	3.3				
CCCCOc1ccc(OCCCC)c2c1SC(=C1C(=O)N(CCCCP(=O)(O)O)N(CCCCP(=O)(O)O)C1=O)S2 [Compound M-19]	3.0				

The next lines start with results.

Solubility (25° C.) [3] [% by mass]	Compound	Haze after moist heating [1, 6] [%]	Moist heat resistance [1, 6]	Light fastness [2, 6]	other results
3.2	CC(C)(C)C(=O)C(C#N)=C1Sc2c(OCCCCS(=O)(=O)[O-])ccc(OCCCCS(=O)(=O)[O-])c2S1.[Na+].[Na+] [Compound M-1]				
3.1	N#CC(C#N)=C1Sc2c(OCCCCS(=O)(=O)[O-])ccc(OCCCCS(=O)(=O)[O-])c2S1.[Na+].[Na+] [Compound M-3]	0.24	Particularly good (the width of change was less than 5%)	Particularly good (the width of change was less than 5%)	Haze after moist heating [1, 7]: 0.1%; Moist heat resistance [1, 7]: Particularly good (the width of change was less than 5%); Molar absorption coefficient [4]: 28,100; Maximum absorption wavelength [5]: 372 nm; Light fastness [2, 7]: Particularly good (the width of change was less than 5%)
3.1	CON=CC(C#N)=C1Sc2c(OCCCCS(=O)(=O)[O-])ccc(OCCCCS(=O)(=O)[O-])c2S1.[Na+].[Na+] [Compound M-5]	0.28	Particularly good (the width of change was less than 5%)	Particularly good (the width of change was less than 5%)	Molar absorption coefficient [4]: 27,400; Maximum absorption wavelength [5]: 390 nm
2.6	N#CC(C#N)=C1Sc2c(OC(=O)CCC(=O)[O-])ccc(OC(=O)CCC(=O)[O-])c2S1.[Na+].[Na+] [Compound M-8]	0.4	Good (the width of change was 5% or more and less than 10%)	Particularly good (the width of change was less than 5%)	Haze after moist heating [1, 7]: 0.3%; Moist heat resistance [1, 7]: Particularly good (the width of change was less than 5%); Light fastness [2, 7]: Particularly good (the width of change was less than 5%)
1.9	CCCCOc1ccc(OCCCC)c2c1SC(=C(C#N)C(=O)OCCCCP(=O)(O)O)S2 [Compound M-10]				
3.7	CCCCOc1ccc(OCCCCS(=O)(=O)[O-])c2c1SC(=C1C(=O)N(CCCCS(=O)(=O)[O-])N(CCCCS(=O)(=O)[O-])C1=O)S2.[Na+].[Na+].[Na+] [Compound M-14]				
2.9	CCCCC(CC)COc1ccc(OCC(CC)CCCC)c2c1SC(=C1C(=O)N(CCCCS(=O)(=O)[O-])N(CCCCS(=O)(=O)[O-])C1=O)S2.[Na+].[Na+] (centres unmarked) [Compound M-15]				
2.9	O=C1C(=C2Sc3c(OCCS(=O)(=O)[O-])ccc(OCCS(=O)(=O)[O-])c3S2)C(=O)N(CCCS(=O)(=O)[O-])N1CCCS(=O)(=O)[O-].[Na+].[Na+].[Na+].[Na+] [Compound M-16]				
3.0	CCCCN1C(=O)C(=C2Sc3c(OCCCCP(=O)(O)O)ccc(OCCCCP(=O)(O)O)c3S2)C(=O)N1CCCC [Compound M-17]				
2.9	CCCCOc1ccc(OCCCC)c2c1SC(=C1C(=O)N(CCCCC(=O)[O-])N(CCCCC(=O)[O-])C1=O)S2.[Na+].[Na+] [Compound M-20]				
